# Measurements from ChEMBL document CHEMBL5226357, “Engineering Selectivity for Reduced Toxicity of Bacterial Kinase Inhibitors Using Structure-Guided Medicinal Chemistry” (ACS Med Chem Lett, 2021).
# Experiments:
# [1] = target: T1, Serine/threonine-protein kinase PknB (Mycobacterium tuberculosis, UniProt P9WI81); assay: Inhibition of Mycobacterium tuberculosis recombinant PknB (1 to 331 residues) expressed in Escherichia coli BL21-Rosetta cells using GarA and ATP as substrate preincubated with enzyme for 10 mins followed by substrate addition and measured after 1 hr by ATP-competitive biochemical assay
# T1 sequence (P9WI81 whole entry): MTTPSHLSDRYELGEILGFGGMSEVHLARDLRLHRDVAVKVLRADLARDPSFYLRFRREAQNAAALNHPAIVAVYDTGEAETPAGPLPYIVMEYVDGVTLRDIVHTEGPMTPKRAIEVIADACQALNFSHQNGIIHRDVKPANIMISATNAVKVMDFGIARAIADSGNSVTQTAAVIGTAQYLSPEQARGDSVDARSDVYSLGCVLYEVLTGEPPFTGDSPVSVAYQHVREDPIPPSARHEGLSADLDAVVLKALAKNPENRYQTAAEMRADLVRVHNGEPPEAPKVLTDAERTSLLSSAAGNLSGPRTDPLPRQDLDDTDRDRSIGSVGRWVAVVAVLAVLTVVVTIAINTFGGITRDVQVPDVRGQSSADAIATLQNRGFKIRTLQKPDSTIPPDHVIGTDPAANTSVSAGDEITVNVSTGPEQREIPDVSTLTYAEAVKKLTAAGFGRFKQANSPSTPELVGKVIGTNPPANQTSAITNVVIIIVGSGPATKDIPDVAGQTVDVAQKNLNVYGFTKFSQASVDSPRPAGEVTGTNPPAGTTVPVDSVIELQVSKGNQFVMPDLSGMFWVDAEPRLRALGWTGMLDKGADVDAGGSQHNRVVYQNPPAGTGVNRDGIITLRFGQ
# [2] = target: T1, Serine/threonine-protein kinase PknB; assay: Binding affinity to Mycobacterium tuberculosis recombinant N-terminal His-tagged PknB (1 to 331 residues) expressed in Escherichia coli DH5alpha cells by microscale thermophoresis analysis
# [3] = target: Cyclin-dependent kinase 2/cyclin A (Homo sapiens, UniProt P24941); assay: Inhibition of human Cdk2/Cyclin A using Myelin basic protein as substrate by ATP competitive assay; format: toxicity
# [4] = target: T1, Serine/threonine-protein kinase PknB; assay: Binding affinity to Mycobacterium tuberculosis partial length PknB (M1 to G279 residues) expressed in mammalian expression system by KdELECT kinase assay
# [5] = target: CDK4/Cyclin D3 (Homo sapiens, UniProt P11802); assay: Binding affinity to human full length CDK4 (M1 to E303 residues) expressed in mammalian expression system/CyclinD3 by KdELECT kinase assay; format: toxicity
# [6] = target: Glycogen synthase kinase-3 beta (Homo sapiens, UniProt P49841); assay: Binding affinity to human full length GSK-3 beta (M1 to T433 residues) expressed in mammalian expression system by KdELECT kinase assay; format: toxicity
# [7] = target: Serine/threonine-protein kinase mTOR (Homo sapiens, UniProt P42345); assay: Binding affinity to human partial length mTOR (L1382 to W2549 residues) expressed in mammalian expression system by KdELECT kinase assay; format: toxicity
# [8] = target: Serine/threonine-protein kinase pim-1 (Homo sapiens, UniProt P11309); assay: Binding affinity to human partial length Pim1 (A15 to K313 residues ) expressed in bacterial expression system by KdELECT kinase assay; format: toxicity
# [9] = tested on: Mycobacterium tuberculosis; assay: Antimycobacterial activity against Mycobacterium tuberculosis H37Ra ATCC 25177 assessed as inhibition of bacterial growth incubated for 12 days by Alamar Blue based fluorescence analysis; format: functional; settings: H37Ra ATCC 25177, 288 h, time 12 day
# [10] = Lipophilicity, logD of the compound in octanol and phosphate buffer at pH 7.4 at 66.7 uM by LC-MS/MS analysis; format: physicochemical; settings: octanol/water, pH 7.4, 66.7 µM
# [11] = tested on: THP-1; assay: Cytotoxicity against human THP-1 cells assessed as reduction in cell viability incubated for 72 hrs by CellTiter-Glo luminescent assay; format: toxicity, cell-based; settings: thp-1, 72 h
# [12] = Toxicity against Zebrafish embryo assessed as embryo survival at 5 uM incubated for 5 days and measured daily; set-up: species or system Danio rerio; settings: zebrafish embryos, time 5 day
# [13] = Selectivity ratio of Kd for human full length CDK4 (M1 to E303 residues) expressed in mammalian expression system/CyclinD3 to Kd for Mycobacterium tuberculosis partial length PknB (M1 to G279 residues) expressed in mammalian expression system
# [14] = Selectivity ratio of Kd for human full length GSK-3 beta (M1 to T433 residues) expressed in mammalian expression system to Kd for Mycobacterium tuberculosis partial length PknB (M1 to G279 residues) expressed in mammalian expression system
# [15] = Selectivity ratio of Kd for human partial length mTOR (L1382 to W2549 residues) expressed in mammalian expression system to Kd for Mycobacterium tuberculosis partial length PknB (M1 to G279 residues) expressed in mammalian expression system
# [16] = Selectivity ratio of Kd for human partial length Pim1 (A15 to K313 residues ) expressed in bacterial expression system to Kd for Mycobacterium tuberculosis partial length PknB (M1 to G279 residues) expressed in mammalian expression system
Structure (SMILES),IC50 [1] [nM],Ki [1] [nM],Kd [2] [nM],IC50 [3] [nM],Kd [4] [nM],Kd [5] [nM],Kd [6] [nM],Kd [7] [nM],Kd [8] [nM],MIC [9] [µM],logD [10],CC50 [11] [nM],"survival at 120 h, 5 µM [12] [%]",Selectivity ratio [13],Selectivity ratio [14],Selectivity ratio [15],Selectivity ratio [16]
CNc1cc(-c2ccnc(Nc3ccc(N4CCN(C)CC4)c(C(F)(F)F)c3)n2)ccn1,9400,2700,920,39000,–,–,–,–,–,–,–,–,–,–,–,–,–
CN1CCN(c2ccc(Nc3nccc(-c4ccccc4)n3)cc2C(F)(F)F)CC1,4600,1300,1200,> 40000,430,1200,2800,> 10000,5200,25,4.8,4100,96,–,–,–,–
CN1CCN(c2ccc(Nc3nccc(-c4ccnc(Cl)c4)n3)cc2C(F)(F)F)CC1,1100,290,48,7200,47,440,2600,690,2200,25,4.3,1140,89,–,–,–,–
CN1CCN(c2ccc(Nc3nccc(-c4ccc([N+](=O)[O-])cc4)n3)cc2C(F)(F)F)CC1,3800,1100,410,180,–,–,–,–,–,–,–,–,–,–,–,–,–
CN1CCN(c2ccc(Nc3nccc(-c4ccc(Cl)cc4)n3)cc2C(F)(F)F)CC1,8100,2400,2200,> 40000,–,–,–,–,–,–,–,–,–,–,–,–,–
COc1cccc(-c2ccnc(Nc3ccc(N4CCN(C)CC4)c(C(F)(F)F)c3)n2)c1,6600,1900,660,10000,–,–,–,–,–,–,–,–,–,–,–,–,–
CN1CCN(c2ccc(Nc3nccc(-c4ccc(F)cc4)n3)cc2C(F)(F)F)CC1,> 40000,> 12000,3000,12000,–,–,–,–,–,–,–,–,–,–,–,–,–
Cc1ccc(-c2ccnc(Nc3ccc(N4CCN(C)CC4)c(C(F)(F)F)c3)n2)cc1,1600,440,30,> 40000,–,–,–,–,–,12,> 5.85,4940,0,–,–,–,–
CN1CCN(c2ccc(Nc3nccc(-c4cccc(C#N)c4)n3)cc2C(F)(F)F)CC1,2500,700,73,> 40000,–,–,–,–,–,–,–,–,–,–,–,–,–
CN1CCN(c2ccc(Nc3nccc(-c4cccc(F)c4)n3)cc2C(F)(F)F)CC1,6100,1800,710,24000,–,–,–,–,–,–,–,–,–,–,–,–,–
CN1CCN(c2ccc(Nc3nccc(-c4cccc([N+](=O)[O-])c4)n3)cc2C(F)(F)F)CC1,1200,320,34,> 40000,19,910,3800,5800,2200,19,4.5,3890,0,48,> 100,> 100,> 100
CN1CCN(c2ccc(Nc3nccc(-c4ccc5ccccc5c4)n3)cc2C(F)(F)F)CC1,3400,970,430,> 40000,–,–,–,–,–,6,> 5.7,3040,100,–,–,–,–
CN1CCN(c2ccc(Nc3nccc(-c4ccc(C#N)cc4)n3)cc2C(F)(F)F)CC1,5100,1500,700,13000,–,–,–,–,–,–,–,–,–,–,–,–,–
CN1CCN(c2ccc(Nc3nccc(-c4ccnc(NCc5ccccc5)c4)n3)cc2C(F)(F)F)CC1,7900,2300,2100,7300,–,–,–,–,–,–,–,–,–,–,–,–,–
CN1CCN(c2ccc(Nc3nccc(-c4cccc(Cl)c4)n3)cc2C(F)(F)F)CC1,4300,1200,340,> 40000,180,3000,9300,> 10000,> 10000,12,> 6,5280,57,–,–,–,–
CN1CCN(c2ccc(Nc3nccc(-c4cccnc4)n3)cc2C(F)(F)F)CC1,1700,470,61,9300,–,–,–,–,–,100,3.53,1060,56,–,–,–,–
